Data on three compounds can be found in patent US20090270450A1, “CHEMICAL COMPOUNDS” (ASTRAZENECA AB, priority 2006, published 2009).

Counter-ions that a name gives are not always drawn.

The target in assay [1] is T1, His-tagged kinase domain of CSF-1R (amino acids 568-912) (Homo sapiens, UniProt P07333).
T1 construct: The His-tagged kinase domain of CSF-1R (i.e., amino acids 568-912, GeneBank ID NM_005211); His; made in house; host or cells: baculovirus infected SF+Express insect cells
T1 sequence (P07333 568-912): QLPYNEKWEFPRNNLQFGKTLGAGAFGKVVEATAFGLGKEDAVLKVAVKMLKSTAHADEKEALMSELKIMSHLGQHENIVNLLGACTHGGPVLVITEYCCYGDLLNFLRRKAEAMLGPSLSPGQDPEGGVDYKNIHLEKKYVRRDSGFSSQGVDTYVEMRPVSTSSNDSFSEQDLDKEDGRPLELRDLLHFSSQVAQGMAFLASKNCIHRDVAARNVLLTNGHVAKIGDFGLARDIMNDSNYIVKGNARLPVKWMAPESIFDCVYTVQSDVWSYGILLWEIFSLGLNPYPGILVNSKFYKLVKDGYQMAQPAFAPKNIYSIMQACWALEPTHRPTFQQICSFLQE
The assay can be described thus: Assay 1: CSF-1R in vitro AlphaScreen assay. In kind it is biochemical. Particulars: phosphorylation of biotinylated pEY substrate; 0.57 nM CSF-1R, 90 μM ATP. How it is done:
Assay 1: CSF-1R in Vitro AlphaScreen Assay
Activity of purified CSF-1R was determined in vitro using an Amplified Luminescent Proximity Homogeneous Assay (ALPHA)(Perkin Elmer), which measures phosphorylation of the CSF-1R substrate, biotinylated poly-glutamine-tyrosine peptide (PEY-HTRF CisBio 61GT0BLD), as described below. The His-tagged kinase domain of CSF-1R (i.e., amino acids 568-912, GeneBank ID NM_005211; (see page 25 lines 13-19 of WO 2006/067445 for the sequence listing)) was purified from baculovirus infected SF+Express insect cells (1.4×10^6 cells/ml), French pressed and chromatographed through subsequent Qiagen Ni-NTA, Superflow Mono Q HR 10/10, and Superdex 200 SEC columns. Typical yield was 245 μg/l of cell pellet at >95% purity.
The phosphorylation of the CSF-1R substrate in the presence and absence of the compound of interest was determined. Briefly, 0.57 nM of purified CSF-1R, 5 nM pEY substrate, and compound were preincubated in 1× buffer for 30 minutes at 25° C. Reactions were initiated with addition of 90 μM adenosine triphosphate (ATP) in 1× buffer and incubated at 25° C. for 60 minutes and reactions stopped by addition of 5 μl of detection mix consisting of 136 mM NaCl, 102 mM ethylenediamine tetraacetic acid, 1.65 mg/ml BSA, 40 ug/ml Streptavidin donor beads (Perkin Elmer 6760002), 40 ug/ml pTyr100 acceptor beads (Perkin Elmer 6760620). Plates were incubated at 25° C. for 18 hours in the dark. Phosphorylated substrate was detected by an EnVision plate reader (Perkin Elmer) 680 nm excitation, 520-620 nm emission. Data was graphed and IC50s calculated using Excel Fit (Microsoft).
On the technique in general: Alpha assays give light when donor and acceptor beads are brought close together.

Assay [2] concerns the target T1, His-tagged kinase domain of CSF-1R (amino acids 568-912). Description: Assay 2: CSF1R in-vitro AlphaScreen assay. In kind it is biochemical. Particulars: phosphorylation of biotinylated pEY substrate; 0.46 nM CSF-1R, 12 mM ATP mix. How it is done:
Assay 2: CSF1R in-Vitro AlphaScreen Assay
Activity of purified CSF-1R was determined in-vitro using an Amplified Luminescent Proximity Homogeneous Assay (ALPHA) (Perkin Elmer, Mass.), which measures phosphorylation of CSF-1R substrate, biotinylated poly-glutamine-tyrosine peptide (pEY-HTRF CisBio 61GT0BLD), as described below. The His-tagged kinase domain of CSF-1R (i.e., amino acids 568-912, GeneBank ID NM_005211) was purified from baculovirus infected SF+Express insect cells (1.4×10^6 cells/ml), French pressed and chromatographed through subsequent QIAgen Ni-NTA, Superflow Mono Q HR 10/10, and Superdex 200 SEC columns. Typical yield was 322 ug/l of cell pellet at >95% purity. The phosphorylation of the CSF-1R substrate in the presence and absence of the compound of interest was determined. Briefly, 5 ul of Enzyme/Substrate/adenosine triphosphate (ATP) mix consisting of 0.46 nM of purified CSF-1R, 12 nM pEY substrate, and 12 mM ATP in 1.2× buffer was preincubated with 2 ul of compound for 20 minutes at 25° C. Reactions were initiated with 5 ul of Metal mix consisting of 24 mM MgCl2 in 1.2× buffer and incubated at 25° C. for 90 minutes and reactions were stopped by addition of 5 ul of Detection mix consisting of 20 mM HEPES, 102 mM ethylenediamine tetraacetic acid, 1.65 mg/ml BSA, 136 mM NaCl, 40 ug/ml Streptavidin donor beads (Perkin Elmer, Mass., Catalog #6760002), and 40 ug/ml phosphotyrosine-specific antibody coated acceptor beads (Perkin Elmer, Mass., Catalog #6760620). Plates were incubated at 25° C. for 18 hours in the dark. Phosphorylated substrate was detected by an EnVision plate reader (Perkin Elmer) 680 nm excitation, 520-620 nm emission. Data was graphed and IC50s calculated using Excel Fit (Microsoft). […] For example the following results were obtained in an assay substantially similar to one or other of the assays described hereinabove: […]

In the case of `CCOc1cc2ncc(C(N)=O)c(Nc3ccc(F)cc3F)c2cc1C1CCN(C(C)C)CC1` [Example 46, 4-[(2,4-Difluorophenyl)amino]-7-ethoxy-6-(1-isopropylpiperidin-4-yl)quinoline-3-carboxamide], the IC50 in assay [1] came to 18 nM; in assay [2], 22 nM.

With `CCOc1cc2ncc(C(N)=O)c(Nc3ccc(C)cc3F)c2cc1C1CCN(C(=O)[C@@H](C)O)CC1` [Example 58, 7-Ethoxy-4-[(2-fluoro-4-methylphenyl)amino]-6-{1-[(2R)-2-hydroxypropanoyl]piperidin-4-yl}quinoline-3-carboxamide], in assay [2], the IC50 amounted to 52 nM.

With `COc1cc2ncc(C(N)=O)c(Nc3ccc(C)cc3F)c2cc1C1CCN(CCO)CC1` [Example 60, 4-[(2-Fluoro-4-methylphenyl)amino]-6-[1-(2-hydroxyethyl)piperidin-4-yl]-7-methoxyquinoline-3-carboxamide hydrochloride], the IC50 in assay [2] came to 4 nM.

Usually IC50 stands for the point on the concentration scale where inhibition reaches its midpoint. A higher IC50 goes with lower potency.
